Here are results for 21 substances from US4931553A, “Platinum-polymer complexes and their use as antitumor agents” (priority 1988, dated 1990).

The nature of series [1]: Aqueous solubility of polymeric platinum prodrugs. In kind it is physicochemical. The following applies: for Aqueous solubility / Appearance: Table I; for Appearance: appearance of the aqueous solution; for Solubility of the complex: temperature not stated; for Solubility at RT: room temperature. The text has this:
Three polyacrylic acid polymers of weight average molecular weight 2000, 5000, 15,000 were used as ligands for complexation with Pt(DACH)(NO3)2 to determine the effect of molecular weight on the physical properties and antitumor properties of the complexes. […] In addition to polyacrylic acids, polymethacrylic acid of 15,000 weight average molecular weight and isotactic and syndiotactic polymethacrylic acid polymers of about 5000 Mw were used as ligands. The polyacrylates were complexed with Pt(DACH)(NO3)2 in aqueous solution at pH 4-6.

Series [2] in a line: Aqueous solubility of polymeric platinum prodrugs. In kind it is physicochemical. The following applies: Table I; for Appearance: appearance of the aqueous solution.
The test system of another series is L1210 murine tumor. Kind of series: L1210 murine tumor model in BDF1 mice (T/C% and cures). Type of series: in vivo. The method, then:
Some of the specific compounds of the examples above were tested by NCI against L1210 murine tumor model in BDF1 mice. The tumored mice were injected ip with solutions of compounds on days 1, 5, and 9 after the cell innoculum. The results of the experiments were evaluated on day 30 and are expressed as the quotient of the median survival time in days of test animals divided by median day of death of the untreated control mice, multiplied by 100 (T/C%). Mice with no sign of tumor on day 30 are considered as cured.
T/C = Ratio of test evaluation to control evaluation expressed as
percentage. More precisely, T/C = Median survival time of test animals
× 100 (Median survival time of control).

In series [3] the test system is tumors responsive to cisplatin and/or DACH-Pt and bisplatinum complex therapy. The experiment in a line: Anti-tumor activity (statement for the pyran copolymer complex). The note with it: in vivo.
For series [4] the following is noted: cited from earlier work.
A further series has as its system M5 ovarian Carcinoma. Kind of series: Inhibition of tumor weight, M5 ovarian Carcinoma implanted subcutaneously. In kind it is in vivo, mice. The following applies: day 30. The method, then:
(§1) In addition to the L1210 tumor line, Pt(trans-DACH)carboxyamylose (Pt:Polymer=1:6) was screened against additional murine tumor models. In these experiments, tumor of a known weight was implanted subcutaneously to the mice. The mice were then treated with the compound on day 1, 5, 9 schedule. On day 30, the tumors were reweighed and the results are expressed as percent inhibition of tumor weight.

A further series concerns CA - 755 Adenocarcinoma. Kind of series: Inhibition of tumor weight, CA-755 Adenocarcinoma implanted subcutaneously. The note with it: day 30. Type of series: in vivo, mice. Here is the method: as §1
For the next series, the system named is Lewis Lung. The experiment in a line: Inhibition of tumor weight, Lewis Lung implanted subcutaneously. The note with it: day 30. Type of series: in vivo, mice. Here is the method:
as §1

Series [5] relates to x5563 Plasma Cell Myeloma. The experiment in a line: Inhibition of tumor weight, x5563 Plasma Cell Myeloma implanted subcutaneously. In kind it is in vivo, mice. The note with it: day 30. Here is the method: as §1
A further series has as its system malignancies in humans. The note with it: in vivo; cited from earlier work.
The test system of another series is animal tumors. The note with it: in vivo; cited from earlier work.
The mark [6] stands for this setting: Table 2, 10 mg/kg, ip days 1, 5, 9, day 30.
Where [7] appears, read: Table 2, 10 mg/kg, ip days 1, 5, 9, no sign of tumor on day 30.
[8] abbreviates: Table 2, 20 mg/kg, ip days 1, 5, 9, day 30.
Setting [9] is: Table 2, 20 mg/kg, ip days 1, 5, 9, no sign of tumor on day 30.

As a reminder, the Solubility is the concentration that dissolves in the medium under given conditions. As for “Pt(trans-DACH)Carboxy Amylopectin (176.000 Mw) [Example 7 (freeze-dried)]”, the “Solubility at 50° C.” value in series [1] is 25 mg/mL.
As usually defined, the Aqueous solubility is how much of the substance goes into solution per volume. Turning to “Pt(trans-DACH)Carboxy Dextran (11.700 Mw) [Example 8]”, in series [2] (2), the Aqueous solubility was determined as 25 mg/mL and the Appearance result was “cloudy”. In addition, the “Solubility at 50° C.” value in series [1] amounted to 25 mg/mL.
In the series with L1210 murine tumor (setting [6]), “Pt(trans DACH)Carboxy amylopectin (176,000 Mw) [Example 17]” came in with a T/C of 357%. Moreover, the Cures in the series on L1210 murine tumor (setting [7]) is listed as 3/6. In the series on L1210 murine tumor (setting [8]), this substance displayed a T/C of 261%. For the same substance, in the series on L1210 murine tumor (setting [9]), the Cures is on record as 1/6. In series [1], the Aqueous solubility was determined as 725 mg/mL, the Appearance entry is recorded as “clear” and the “Solubility of the complex” value is listed as “greater than 25 mg per ml”.
With “Pt(trans-DACH)polyacrylate (2000 Mw) [Example 1]”, the “Solubility in water (in words)” value in series [1] (water) is given as “very soluble in water”.
Turning to “(trans-DACH) Pyran Copolymer Complex [Example 19]”, the “Anti-tumor activity (in words)” value in series [3] is “exhibits anti-tumor activity”.
Regarding “Pt(trans-DACH)Carboxy Dextran Sulfate (6,000 Mw) [Example 11]”, the “Solubility at RT” value in series [1] turned out to be 50 mg/mL.
DACH-Pt(OH2)Cl2 (IV): in series [4] (at most sparingly soluble), the “Solubility of platinum-amine complexes (at most sparingly soluble)” value is below 1 mg/mL.
“Pt(trans-DACH)Carboxy Dextran, 11,700 Mw (58% Degree of Oxidation) [Example 12]”: the “Solubility at RT” value in [1] was 100 mg/mL.
Turning to “Pt(trans-DACH)Carboxy Dextran (40,000 Mw) [Example 18]”, in series [1], the Aqueous solubility was 730 mg/mL, the Appearance result is given as “clear” and the “Solubility of the complex” value was “greater than 30 mg per ml”.
With “Pt(trans-DACH)CO oxyalginic Acid (75.000 Mw) [Example 15]”, in series [1] (10% sodium bicarbonate, 40° C.), the “Solubility in 10% sodium bicarbonate solution” value amounted to 25 mg/mL.
Consider “Pt(trans-DACH)Carboxy Dextran (21,200 Mw) [Example 9]”, for which, in series [1], the “Solubility at RT” value is 100 mg/mL.
“Pt(trans-DACH)Carboxyamylose (176,000 Mw) [Example 16]”: in series [1], the Aqueous solubility stood at 725 mg/mL and the Appearance result is “clear”. Also, in [1] (on slight warming), the “Solubility of the complex on slight warming” value is listed as “greater than 25 mg per ml”.
On to “Pt(trans-DACH)Carboxy Amylopectin (176.000 Mw) [Example 7]”, for which the T/C with L1210 murine tumor (setting [6]) is on record as 337%; in the series with L1210 murine tumor (setting [8]), 314%; with L1210 murine tumor (Table 3, 10 mg/kg), 337; in the series with L1210 murine tumor (Table 3, 20 mg/kg), 314. In addition, the Cures was 4/6 with L1210 murine tumor (setting [7]); 2/6 in the series with L1210 murine tumor (setting [9]); 4/6 in the series with L1210 murine tumor (Table 3, 10 mg/kg); 2/6 with L1210 murine tumor (Table 3, 20 mg/kg). In series [1], the Aqueous solubility stood at 25 mg/mL. The Appearance result in series [1] is “clear”.
As for “Pt(trans-DACH)Carboxy Polygalacturonic Acid [Example 14]”, in series [1] (aqueous solution), the “Solubility in aqueous solution (in words)” value is “Insoluble in aqueous solution”.
Turning to “Pt(trans-DACH)Carboxy Dextran (47,000 Mw) [Example 10]”, the “Solubility in water at room temperature and up to 50° C. (in words)” value in [1] (water, room temperature and up to 50° C.) was “insoluble in water at room temperature and up to 50 °C”.
With “Pt(trans-DACH)Carboxy Dextran (11.700 Mw)”, in [2] (6), the Aqueous solubility is 100 mg/mL and the Appearance entry is given as “clear”.
Turning to “Pt(trans-DACH)Carboxy Amylose (176.000 Mw) [Example 5]”, the “% Inh. of tumor weight” value with M5 ovarian Carcinoma (dose 5, days 1, 5, 9) came out at 64%; in the series on M5 ovarian Carcinoma (dose 10, days 1, 5, 9), 86%; in the series with M5 ovarian Carcinoma (dose 20, days 1, 5, 9) it was 99%; with CA - 755 Adenocarcinoma (dose 5, days 1, 5, 9) it was 69%; with CA - 755 Adenocarcinoma (dose 10, days 1, 5, 9), 81%; in the series with CA - 755 Adenocarcinoma (dose 20, days 1, 5, 9), 94%. Further, the “% Inh. of tumor weight” value was 20% in the series with Lewis Lung (dose 1.25, days 1, 5, 9); 37% in the series on Lewis Lung (dose 2.5, days 1, 5, 9); 34% with Lewis Lung (dose 5, days 1, 5, 9); 100% in [5] (dose 5, days 1, 5, 9); 100% in [5] (dose 10, days 1, 5, 9); 100% in [5] (dose 20, days 1, 5, 9). The T/C in the series on L1210 murine tumor (setting [6]) was found to be 269%; in the series with L1210 murine tumor (setting [8]), 269%; with L1210 murine tumor (Table 2, 40 mg/kg, ip days 1, 5, 9, day 30), 292%. The Cures is recorded as 1/6 in the series on L1210 murine tumor (setting [7]); 2/6 with L1210 murine tumor (setting [9]); 2/6 with L1210 murine tumor (Table 2, 40 mg/kg, ip days 1, 5, 9, no sign of tumor on day 30). Moreover, in series [1], the Aqueous solubility stood at 10 mg/mL. The Appearance entry in series [1] is “clear”.
Take cis-[Pt(NH3)2 Cl2 ] [cisplatin]: in the series with malignancies in humans, the “Use in human malignancies (in words)” value is “used successfully in treating certain types of malignancies in humans”. The substance further registered a T/C in the series on L1210 murine tumor (Table 3, 5 mg/kg) of 175 ± 5. Besides, the Water solubility result in series [4] (in water) is “about 1 mg/ml”. In addition, the “Effectiveness against animal tumors (in words)” value with animal tumors is “effective against several types of animal tumors”.
As to “Pt(trans-DACH)Polyacrylate (5000 Mw) [Example 2]”, in series [1] (water), the “Solubility in water (in words)” value was “very soluble in water”.
With “Pt(trans-DACH)Carboxy Amylose (4,800 Mw) [Example 6]”, the “Solubility at 50° C.” value in series [1] was determined as 20 mg/mL.
In the case of “Pt(trans-DACH)Carboxy Amylose (50% degree of Oxidation) [Example 13]”, in series [1], the “Solubility at 50° C.” value stood at 25 mg/mL.
